Source: US20160008376A1, “Compositions, Methods and Uses for Treating Gender-Biased Immune Disorders” (Biocopea Limited, priority 2014, published 2016)

Tested on: antibodies directed to the CH47 region of the P1/P2 ribosomal protein
Assay: Hormone added to sera of immunized female mice, antibody signal for the CH47 peptide
Format: binding
Conditions: overall
Protocol: In a second series of experiments, Testosterone (0 ng/mL, 0.5 ng/mL, 1 ng/mL, 2 ng/mL, and 4 ng/mL) or Progesterone (0 ng/mL, 2 ng/mL, 4 ng/mL, 8 ng/mL, and 14 ng/mL) was added to the sera of female mice immunized with a variety of different Chagas peptides (Formulation 1 or 2) that either include (B) or excluded (A) specifically peptide CH47. […] At low hormone concentrations there was an increase in the antibody signal with a subsequent decrease as the concentration of hormone further increased.

| Compound | decrease in the IgG response (hormone 0-14 ng/mL) [%] | decrease in the antibody response (hormone 0-4 ng/mL) [%] |
| --- | --- | --- |
| CC(=O)[C@H]1CC[C@H]2[C@@H]3CCC4=CC(=O)CC[C@]4(C)[C@H]3CC[C@]12C [Progesterone, pregn-4-ene-3,20-dione] | 26.2 | – |
| C[C@]12CC[C@H]3[C@@H](CCC4=CC(=O)CC[C@@]43C)[C@@H]1CC[C@@H]2O [Testosterone] | – | 24.4 |
